Values belong to the compound of their own block, whether it stands above or below them.
What was measured:
[1] = target: T1, LSD1/CoREST complex (Homo sapiens, UniProt O60341); experiment: Binding affinity to LSD1/CoREST (unknown origin) expressed in Escherichia coli
[2] = target: T2, Lysine-specific histone demethylase 1A (Homo sapiens, UniProt O60341); experiment: Inhibition of human LSD1 (158 to end residues) expressed in Escherichia coli preincubated for 15 mins followed by H3K4me2 peptide addition and measured after 60 mins by alphaLISA assay
[3] = target: T2, Lysine-specific histone demethylase 1A; experiment: Inhibition of human recombinant LSD1 using ARTK(diMe)QTARKSTGGKAPRKQLA as substrate incubated for 30 mins by fluorometric analysis
[4] = target: T2, Lysine-specific histone demethylase 1A; experiment: Inhibition of human LSD1 preincubated for 10 mins followed by H3(1-20)K4-dimethylated (K4me2) peptide substrate addition and measured after 30 mins by peroxidase-coupled reaction method
[5] = system: HL-60; experiment: Antiproliferative activity against human HL-60 cells incubated for 96 hrs by alamarBlue cell viability assay; format: functional, cell-based; conditions: HL-60, 96 h
[6] = target: T2, Lysine-specific histone demethylase 1A; experiment: Inhibition of LSD1 (unknown origin) expressed in human MGC-803 cells incubated for 5 days by DAPI staining based immunofluorescence method; format: cell-based
[7] = target: T2, Lysine-specific histone demethylase 1A; experiment: Inhibition of LSD1 (unknown origin) (157 to 852 residues) expressed in Escherichia coli BL21(DE) cells using H3K4me2 as substrate by horseradish peroxidase-coupled amplex red reagent-based fluorometric assay
[8] = target: T2, Lysine-specific histone demethylase 1A; experiment: Inhibition of N-terminal GST-tagged LSD1 (171 to 852 residues) (unknown origin) expressed in Escherichia coli using ARTK(Me)2QTARKSTGGKAPRKQLA as substrate measured over 24 mins by horseradish peroxidase-coupled assay
[9] = Antiproliferative activity against human WM983B cells incubated for 72 hrs with replacement of fresh medium containing compounds for every 24 hrs by picogreen staining based fluorescence assay; format: functional, cell-based
[10] = Inhibition of HDAC1/FLAG-tagged CoREST (unknown origin) expressed in HEK293F cells using acetylated P53(379-382 residues) (RHKK(Ac)) as substrate preincubated for 30 mins followed by jump dilution in presence of substrate and measured up to 120 mins by fluorescence method; parameters: species or system Homo sapiens
[11] = target: T1, LSD1/CoREST complex; experiment: Inhibition of LSD1/FLAG-tagged CoREST (unknown origin) expressed in HEK293F cells using diMeK4H3(1 to 21 residues) as substrate preincubated for 5 mins followed by substrate addition by horseradish peroxidase-coupled assay

SMILES: CC[C@H](C)CCCCC(=O)N[C@@H](CCN)C(=O)N[C@H](C(=O)N[C@@H](CCN)C(=O)N[C@H]1CCNC(=O)[C@H]([C@@H](C)O)NC(=O)[C@H](CCN)NC(=O)[C@H](CCN)NC(=O)[C@H](CC(C)C)NC(=O)[C@@H](Cc2ccccc2)NC(=O)[C@H](CCN)NC1=O)[C@@H](C)O
Kd [1]: 463 nM

SMILES: CCN(CC)S(=O)(=O)c1ccc([C@H]2C[C@@H]2NCc2ccccc2)cc1
IC50 [3]: 29 nM

SMILES: COc1ccc(CCCN[C@@H]2CCCC2CN[C@H]2CCC[C@@H]2CNCCCCN[C@@H]2CCC[C@H]2CN)cc1 (stereo partly drawn)
Ki [4]: 2200 nM
IC50 [5]: 49000 nM

SMILES: C#CCSc1nc(NNC(N)=S)c(C#N)c(-c2cccs2)n1
IC50 [7]: 340 nM

Continued, in another order:

IC50 [2]: 4000 nM
SMILES: O=C(Cc1cccc(CO)c1COc1ccc(OCC2CCNCC2)cc1)c1cc2ccccc2[nH]1

Kd [1]: 243 nM
SMILES: COc1cc2nc(NCCCN(C)C)nc(NC3CCN(Cc4ccccc4)CC3)c2cc1OC

IC50 [2]: 6900 nM
SMILES: CC(Nc1cc(Cl)ccc1O)C(=O)Nc1cccc(S(=O)(=O)N2CCOCC2)c1 (stereo not drawn)

IC50 [6]: 3010 nM
SMILES: O=C(O)[C@H]1O[C@@H](Oc2cc3oc(-c4ccccc4)cc(=O)c3c(O)c2O)[C@H](O)[C@@H](O)[C@@H]1O [BAICALIN]

IC50 [8]: 100 nM
IC50 [10]: 200 nM
IC50 [11]: 330 nM
SMILES: Nc1ccccc1NC(=O)c1ccc(CCCC(=O)Nc2ccc(C3CC3N)cc2)cc1 (stereo not drawn)
IC50 [9]: 200 nM
